Key:
C-PAE cells [1] = experiment: Annexin V-FITC apoptosis assay; assay type: cell-based, bovine; conditions: 5 μg/ml Arresten, 40 ng/ml TNFα
Procedure: Fifty thousand C-PAE cells were added to each well of a 6-well tissue culture plate in DMEM supplemented with 10% FBS for 12 hours. Fresh medium together and either 5 μg/ml Arresten or 40 ng/ml TNFα (positive control) was added at 2, 4 and 6 hour time points. Control wells received an equal of volume of PBS. Detached cells and adherent cells were pooled together and centrifuged at 1500 rpm. Cells were washed with binding buffer (Clontech, Palo Alto, Calif., USA), and phosphatidyl-serine (PS) externalization, an indicator of apoptosis, was measured by labeling with FITC-labeled annexin V (Clontech) according to manufacturer's instructions. Annexin-FITC labeled cells were counted using a FACStar Plus flow cytometer (Becton-Dickinson, Waltham, Mass., USA). For each treatment, 10,000 cells were counted and stored. […] Relative to controls, the percentage of annexin-V-stained (apoptotic) cells increased to about 27% at 2 hours, and near 20% at 4 and 6 hours for the positive control, TNFα. For Arresten-treated cells, the percentage of apoptotic cells was about 18% at 2 hours, and about 23% at 4 and 6 hours.
Annexin V-FITC Labeling. In order to establish apoptosis as the potential mode of action for Canstatin, Annexin V-FITC was used to label externalized phosphatidylserine (PS), to assess apoptotic cells. 0.5×10^6 C-PAE cells, PC-3, 786-O and HEK 293 cells were added to each well of a 6 well tissue culture plate in 10% FBS supplemented DMEM (BioWhittaker, Walkersville, Md., USA) overnight. The next day, fresh medium was added to all wells together with 40 ng/ml TNF-α (positive control) or 15 μg/ml Canstatin. Control cells received an equal volume of PBS. After 24 hours of treatment, medium containing detached cells was collected and attached cells were trypsinized and combined with detached cells and centrifuged at 3,000×g. Cells were then washed and phosphatidyl-serine externalization (an early apoptotic indicator) was measured by labeling with FITC-labeled annexin V (Clontech, Palo Alto, Calif., USA) according to the manufacturer's instructions. Annexin V-FITC-labeled cells were counted using a FAC Star Plus flow cytometer (Becton-Dickenson, Waltham, Mass., USA). For each treatment 15,000 cells were counted and stored in listmode.
C-PAE cells (0.5×10^6 per well) were seeded onto a 6-well plate in 10% FCS supplemented DMEM. The next day, fresh medium containing 10% FCS was added with either 80 ng/ml of TNF-α (positive control) or Tumstatin ranging from 0.02 to 20 μg/ml. Control cells received an equal volume of PBS. After 18 hours of treatment, medium containing floating cells was collected, and attached cells were trypsinized and centrifuged together with floating cells at 3,000×g. The cells were then washed in PBS and resuspended in binding buffer (10 mM HEPES/NaOH, pH 7.4, 140 mM NaCl, 2.5 mM CaCl2). Annexin V-FITC (Clontech, Palo Alto, Calif., USA) was added to a final concentration of 150 ng/ml, and the cells were incubated in the darkness for 10 minutes. The cells were washed again in PBS and resuspended in binding buffer. Annexin V-FITC labeled cells were counted using a FACStar Plus flow cytometer (Becton-Dickinson, Waltham, Mass., USA). For each treatment, 15,000 cells were counted and stored in listmode.
Apoptosis was measured by Annexin V-FITC assay, using the ApoAlert kit (Clontech, Palo Alto, Calif., USA). Propidium iodide was used to stain the nuclei of cells that had died by ways other than apoptosis.
The assay was performed as described above, by treating C-PAE cells with Tumstatin-44-131 for 18 hours. Control cells received PBS.

Caspase-3 in C-PAE cells [2] = experiment: Caspase-3 assay; assay type: cell-based, bovine; conditions: TNF-α 80 ng/ml
Procedure: Tumstatin also altered cell morphology of C-PAE cells as monitored by phase contrast microscopy. After treating cells with 20 μg/ml of Tumstatin in the presence of 10% FCS for 24 hours on fibronectin-coated plates, the typical morphological features of apoptotic cells, membrane blebbing, cytoplasmic shrinkage, and chromatin condensation could be observed. […] Caspase-3 assay: Caspase-3 (CPP32) is an intracellular protease activated at the early stage of apoptosis, and initiates cellular breakdown by degrading structural and DNA repair proteins (Casciola-Rosen, L. et al., 1996, J. Exp. Med. 183:1957-64; Salvesen, G. S. et al., 1997, Cell 91:443-46). The protease activity of Caspase-3 was measured spectrophotometrically by detection of the chromophore (p-nitroanilide) cleaved from the labeled substrate (DEVD-pNA). C-PAE cells or PC-3 cells (0.5×10^6 per well) were plated onto a 6-well plate precoated with fibronectin (10 μg/ml) in DMEM supplemented with 10% FCS, and incubated overnight. The next day, the medium was replaced with DMEM containing 2% FCS and then incubated overnight at 37° C. Then cells were then stimulated with bFGF (3 ng/ml) in DMEM supplemented with 2% FCS, and also containing either TNF-α (80 ng/ml, positive control) or Tumstatin (10 μg/ml), and incubated for 24 hours. Controls received PBS buffer. After 24 hours, the supernatant cells were collected, and attached cells were trypsinized and combined with the supernatant cells. Cells were counted and resuspended in cell lysis buffer (Clontech) at a concentration of 4×10^7 cells/ml. The rest of the protocol followed the manufacturer's instructions (Clontech). A specific inhibitor of Caspase-3, DEVD-fmk (Asp-Glu-Val-Asp-fluoromethyl ketone) was used to confirm the specificity of the assay. The absorbance was measured in a microplate reader (Bio-Rad, Hercules, Calif., USA) at 405 nm. The assay was repeated three times for each cell type.
Apoptosis was also evaluated by measuring Caspase-3 activity as described in Example 27, above. The results are shown in FIG. 35, which is a histogram showing Caspase-3 activity as a measure of absorbance at OD405 (y-axis) of C-PAE cells treated (x-axis) with 5 μg/ml Tum-1, Tum-2, Tum-3 or Tum-4, or 80 ng/ml TNF-α or PBS buffer (control).
Caspase-3 activity was also assayed as described above. DEVD-fmk, a specific caspase-3 inhibitor, was used as an internal control to show specificity of Tumstatin-44-131. TNF-α (80 ng/ml) was used as a positive control. The experiments were repeated three times.
The protease activity of Caspase-3 in cells treated with T3 peptide was measured spectrophotometrically by detection of the chromophore (p-nitroanilide) cleaved from the labeled substrate (DEVD-pNA). […] In PC-3 nonendothelial cells, there was no difference in Caspase-3 activity between control treatments and T3 peptide-treated cells.

Caspase-3 in C-PAE cells [3] = experiment: Caspase-3 assay; assay type: cell-based, bovine; conditions: 20 μg/ml Tumstatin; TNF-α positive control
PC-3 cells = experiment: MTT cell viability assay; assay type: cell-based, human; conditions: 0-50 μg/ml
Procedure: (§1) Cell viability was measured by MTT assay, as described above.
(§2) The effects of Tumstatin-44-131 and Tum-5-125-C-A on cell viability of C-PAE cells were not seen in control PC-3 and DU-145 cells, as shown in FIGS. 52C and 52D. […] The activity of Tumstatin-44-131 is therefore specific to endothelial cells.

DU-145 cells = experiment: MTT cell viability assay; assay type: cell-based; conditions: 0-50 μg/ml
Procedure: as §1, §2

Goodpasture autoantibody = experiment: Reactivity with Goodpasture autoantibody (western blotting); assay type: binding, human
Text: Goodpasture syndrome is an autoimmune disease characterized by pulmonary hemorrhage and/or rapidly progressing glomerulonephritis, which are caused by the disruption of glomerular and alveolar basement membranes through immune injury associated with autoantibody activity against α3(IV) NC1. Recently, the most probable disease-related pathogenic epitope was identified in the N-terminal portion (Kalluri, R. et al., 1996, J. Biol. Chem. 271:9062-8; Hellmark, T. et al., 1999, Kidney Int. 55:938-44), and was then further confined within the N-terminal 40 amino acids (Hellmark, T. et al., 1999, J. Biol. Chem. 274:25862-8; Netzer, K. O. et al., 1999, J. Biol. Chem. 274:11267-74). The N-terminal Tumstatin-44-131 consists of residues 44-131 of Tumstatin, which is outside of the Goodpasture autoepitope. To further confirm that Tumstatin-44-131 would not be detected by Goodpasture autoantibody, antisera from patients with Goodpasture was used for western blotting.

C-PAE cells [4] = experiment: Cell cycle analysis (propidium iodide, flow cytometry); assay type: cell-based, bovine
Procedure: To further evaluate the mechanism of T3 peptide on endothelial cell proliferation, the effect of T3 peptide on cell cycle progression was analyzed. In the growth arrested and contact inhibited cells (0 hour), 4.1% of cells were in S phase. […] This was true even at a maximal dosage of 100 μg/ml. The effect of the T3 peptide was dose-dependent, however, with the percentage of cells in S phase at 21.4% at 10 μg/ml, and 20.5% at 25 μg/ml. The percentage of cells in G0/G1 phase was 88.3% at 0 hour, 53.4% for the bFGF control, and 57.6%, 57.6% and 71.0% for treatments with T1, T6 and T3 peptide, respectively. […] Apoptotic Activity: Peptides T2, T3, T4, T5 and T6 (10 μg/ml concentration) were tested for their effect of viability of C-PAE cells using the MTT assay, as described in Examples 32 and 36 above. The results are shown in FIG. 43D, which is a histogram showing cell viability as measured at OD595 (y-axis), and treatments with the synthetic peptides (x-axis). […] TNF-α (100 ng/ml) was used to serve as a positive control in inducing endothelial cell apoptosis.
The effect of Tumstatin-44-131 and Tum-5-125-C-A on the cell cycle were assayed similarly to Example 4 above. Briefly, C-PAE cells were growth arrested by contact inhibition for 48 hours. The cells, at 10^5 cells per well, were then harvested and plated into a 12-well plate coated with fibronectin in 5% FCS and either recombinant Tumstatin-44-131 or Tum-5-125-C-A. After 21 hours, the cells were harvested and fixed in 70% ice-cold ethanol. The fixed cells were rehydrated a room temperature for 30 minutes in PBS containing 2% FCS and 0.1% Tween-20, centrifuged and resuspended in 0.5 ml of the same buffer. RNase (5 μg/ml) digestion was done at 37° C. for one hour, followed by staining with propidium iodide (5 μg/ml). The cells were then counted using an EPICS XL-MCL flow cytometer (Beckman-Coulter Instruments, Fullerton, Calif., USA).

PC-3 tumors = experiment: PC-3 xenograft in athymic nude NCRNU mice (Example 46); assay type: in vivo; conditions: 1 mg/kg i.p. b.i.d., 20 days
Procedure: Tumstatin-44-131 was also tested for its ability to suppress tumor growth. Male athymic nude NCRNU mice, of 5-6 weeks of age and about 25 g, were implanted with […] approximately 2×10^6 PC-3 (prostate cancer carcinoma) cells into the dorsal subcutis. […] The tumors were allowed to grow to about 50 mm^3, and animals were then pair-matched into groups of 6 mice. Initial doses of protein or vehicle (PBS, control) were given on the day of pair-matching (Day 1). Tumstatin-44-131, Tum-5-125-C-A, or human endostatin in sterile PBS was intraperitoneally injected daily b.i.d. at doses ranging from 1 to 20 mg/kg for 20 days. Control animals received injection of PBS vehicle. In one treatment, continuous subcutaneous delivery of Tumstatin-44-131 was done using surgically implanted Alzet mini-pumps. The mice were weighed twice weekly, and tumor measurements were taken, starting on Day 1. Estimated mean tumor volumes were calculated, and at Day 21, the mice were weighed, sacrificed, and their tumors excised and examined by light microscopy and CD31 immunostaining. The mean treated tumor weight was divided by the mean control tumor weight was subtracted from one, and expressed as a percentage to give the tumor growth inhibition for each group.

Row | Molecule | percentage of annexin-V-stained (apoptotic) cells (C-PAE cells [1]; 4 and 6 hours) | percentage of annexin-V-stained (apoptotic) cells (C-PAE cells [1]; 2 hours) | fold increase in Caspase-3 activity (Caspase-3 in C-PAE cells [2]; 10 μg/ml E. Coli-expressed Tumstatin-44-131) | fold increase in Caspase-3 activity (Caspase-3 in C-PAE cells [2]; 50 μg/ml T3 peptide) | fold increase in Caspase-3 activity (Caspase-3 in C-PAE cells [3]) | effect on viability of PC-3 cells (PC-3 cells) | effect on viability of DU-145 cells (DU-145 cells) | detection by antisera / autoantibodies from patients with Goodpasture syndrome (Goodpasture autoantibody) | cell cycle arrest compared with Tumstatin-44-131 (C-PAE cells [4]) | tumor growth inhibition (PC-3 tumors)
1 | TNF-α [reference compound] | ~20% | about 27% | 4.5 fold | 4.5 fold | 1.7 fold | – | – | – | – | –
2 | Tum-5-125-C-A: Tumstatin-44-131 with cysteine at position 125 mutated to alanine (SEQ ID NO:34) (protein, Tumstatin-5-125-C-A (amino acids 45-132 of SEQ ID NO10; alanine has been substituted for the cysteine residue at position 125 of the full-length Tumstatin molecule)) FSFLFVQGNQRAHGQDLGTLGSCLQRFTTMPFLFCNVNDVCNFASRNDYSYWLSTPALMPMNMAPITGRALEPYISRCTVAEGPAIAI | – | – | – | – | – | not seen | not seen | failed to detect | equivalent to treatment with Tumstatin-44-131 | 92.0%

From US7387779B2, “Anti-angiogenic proteins and fragments and methods of use thereof” (Beth Israel Deaconess Medical Center, priority 1998, dated 2008)
